Values after ≈ are worked out from the molar mass of the structure shown. Read-outs that look alike come from different tables or passages of the source.
What was measured:
Assay in all cases: Antibacterial activity (MIC), agar dilution
Format in all cases: cell-based
Ps. aeruginosa GN918** = settings: Pseudomonas aeruginosa, 20 h; Ps. aeruginosa GN918, cephalospolinase-producing; 10^6 cells per ml; read-out: MIC
Description: (§1) The amount of bacteria inoculated was 10^4 cells per plate (10^6 cells per ml).
(§2) ** Cephalospolinase-producing bacteria

Pro. vulgaris GN76** = settings: Proteus vulgaris, 20 h; Pro. vulgaris GN76, cephalospolinase-producing; 10^6 cells per ml; read-out: MIC
Description: as §1, §2

E. coli GN5482** = settings: Escherichia coli, 20 h; E. coli GN5482, cephalospolinase-producing; 10^6 cells per ml; read-out: MIC
Description: as §1, §2

St. aureus F-137* = settings: Staphylococcus aureus, 20 h, St. aureus F-137, penicillinase-producing; 10^6 cells per ml; read-out: MIC
Description: as §1
(§3) * Penicillinase-producing bacteria

Kl. pneumoniae Y-4* = settings: Klebsiella pneumoniae, 20 h, Kl. pneumoniae Y-4, penicillinase-producing; 10^6 cells per ml; read-out: MIC
Description: as §1, §3

E. coli TK-3* = settings: Escherichia coli, 20 h, E. coli TK-3, penicillinase-producing; 10^6 cells per ml; read-out: MIC
Description: as §1, §3

Ps. aeruginosa GN3379* = settings: Pseudomonas aeruginosa, 20 h; Ps. aeruginosa GN3379, penicillinase-producing; 10^6 cells per ml; read-out: MIC
Description: as §1, §3

St. aureus FDA209P = settings: Staphylococcus aureus, FDA209P, 20 h, St. aureus FDA209P; 10^6 cells per ml; 37° C., 20 hours; read-out: MIC
Description: as §1

Pro. mirabilis T-111 = settings: Proteus mirabilis, T111, 10^6 cells per ml, 37° C., 20 hours, read-out: MIC
Description: as §1

Ent. cloacae IID977 = settings: Enterobacter cloacae, IID977, 20 h, Ent. cloacae IID977; 10^6 cells per ml; 37° C., 20 hours; read-out: MIC
Description: as §1

Pro. vulgaris GN3027 = settings: Proteus vulgaris, GN3027, 20 h, Pro. vulgaris GN3027; 10^6 cells per ml; 37° C., 20 hours; read-out: MIC
Description: as §1

E. coli TK-111 = settings: Escherichia coli, TK111, 20 h, E. coli TK-111; 10^6 cells per ml; 37° C., 20 hours; read-out: MIC
Description: as §1

Kl. pneumoniae Y-50 = settings: Klebsiella pneumoniae, Y50, 20 h, 10^6 cells per ml, 37° C., read-out: MIC
Description: as §1

Kl. pneumoniae Y-41 = settings: Klebsiella pneumoniae, Y41, 10^6 cells per ml, 37° C., 20 hours, read-out: MIC
Description: as §1

Pro. morganii T-216 = settings: Morganella morganii, 37° C.
Description: as §1

Ps. aeruginosa S-68 = settings: Pseudomonas aeruginosa, S68; Ps. aeruginosa S-68; 10^6 cells per ml; 37° C., 20 hours; read-out: MIC
Description: as §1

Ps. aeruginosa IFO3445 = settings: Pseudomonas aeruginosa; Ps. aeruginosa IFO3445; 10^6 cells per ml; 37° C., 20 hours; read-out: MIC
Description: as §1

E. coli NIHJ JC-2 = settings: Escherichia coli, NIHJJC2, 20 h, E. coli NIHJ JC-2; 10^6 cells per ml; 37° C., 20 hours; read-out: MIC
Description: as §1

Aci. antitratus A-6 = settings: 20 h, Aci. antitratus A-6; 10^6 cells per ml; 37° C., 20 hours; read-out: MIC
Description: as §1

[1] = T216, 10^6 cells per ml, 20 hours, read-out: MIC

SMILES | MIC (Ps. aeruginosa GN918**) | MIC (Pro. vulgaris GN76**) | MIC (E. coli GN5482**) | MIC (St. aureus F-137*) | MIC (Kl. pneumoniae Y-4*) | MIC (E. coli TK-3*) | MIC (Ps. aeruginosa GN3379*) | MIC (St. aureus FDA209P) | MIC (Pro. mirabilis T-111) | MIC (Ent. cloacae IID977) | MIC (Pro. vulgaris GN3027) | MIC (E. coli TK-111) | MIC (Kl. pneumoniae Y-50) | MIC (Kl. pneumoniae Y-41) | MIC (Pro. morganii T-216; [1]) | MIC (Ps. aeruginosa S-68) | MIC (Ps. aeruginosa IFO3445) | MIC (E. coli NIHJ JC-2) | MIC (Aci. antitratus A-6) | MIC (Pro. morganii T-216; T216, 20 h, 10^6 cells per ml)
Cn1ccc2cc(-c3cc(=O)c(C(=O)O)cn3-c3ccc(O)cc3F)ccc21 | 0.78 µg/mL (≈ 2.06 µM) | 0.39 µg/mL (≈ 1.03 µM) | ≤ 0.05 µg/mL | ≤ 0.05 µg/mL | 0.78 µg/mL (≈ 2.06 µM) | 0.2 µg/mL (≈ 0.529 µM) | 3.13 µg/mL (≈ 8.27 µM) | 0.05 µg/mL (≈ 0.132 µM) | 0.39 µg/mL (≈ 1.03 µM) | 0.39 µg/mL (≈ 1.03 µM) | ≤ 0.05 µg/mL | ≤ 0.05 µg/mL | 0.2 µg/mL (≈ 0.529 µM) | 0.39 µg/mL (≈ 1.03 µM) | 0.39 µg/mL (≈ 1.03 µM) | 1.56 µg/mL (≈ 4.12 µM) | 1.56 µg/mL (≈ 4.12 µM) | ≤ 0.05 µg/mL | ≤ 0.05 µg/mL | –
CC(=O)Oc1ccc(-n2cc(C(=O)OCCN(C)C)c(=O)cc2-c2ccc3c(ccn3C)c2)c(F)c1 | 1.56 µg/mL (≈ 3.17 µM) | 0.78 µg/mL (≈ 1.59 µM) | ≤ 0.05 µg/mL | ≤ 0.05 µg/mL | 3.13 µg/mL (≈ 6.37 µM) | 0.39 µg/mL (≈ 0.793 µM) | 12.5 µg/mL (≈ 25.4 µM) | ≤ 0.05 µg/mL | 1.56 µg/mL (≈ 3.17 µM) | 0.78 µg/mL (≈ 1.59 µM) | 0.1 µg/mL (≈ 0.203 µM) | ≤ 0.05 µg/mL | 0.39 µg/mL (≈ 0.793 µM) | 3.13 µg/mL (≈ 6.37 µM) | – | 6.25 µg/mL (≈ 12.7 µM) | 6.25 µg/mL (≈ 12.7 µM) | 0.1 µg/mL (≈ 0.203 µM) | 0.39 µg/mL (≈ 0.793 µM) | 3.13 µg/mL (≈ 6.37 µM)
COc1ccc(-c2cc(=O)c(C(=O)O)cn2-c2ccc(O)cc2C)cc1 | 1.56 µg/mL (≈ 4.44 µM) | 0.39 µg/mL (≈ 1.11 µM) | ≤ 0.05 µg/mL | 0.1 µg/mL (≈ 0.285 µM) | 0.78 µg/mL (≈ 2.22 µM) | 0.2 µg/mL (≈ 0.569 µM) | 12.5 µg/mL (≈ 35.6 µM) | 0.1 µg/mL (≈ 0.285 µM) | 1.56 µg/mL (≈ 4.44 µM) | 0.39 µg/mL (≈ 1.11 µM) | ≤ 0.05 µg/mL | 0.05 µg/mL (≈ 0.142 µM) | 0.1 µg/mL (≈ 0.285 µM) | 0.78 µg/mL (≈ 2.22 µM) | 1.56 µg/mL (≈ 4.44 µM) | 3.13 µg/mL (≈ 8.91 µM) | 3.13 µg/mL (≈ 8.91 µM) | 0.1 µg/mL (≈ 0.285 µM) | 0.2 µg/mL (≈ 0.569 µM) | –
